Reference: US8227516B2, “Compounds as histone deacetylase inhibitors” (4SC Discovery GmbH, priority 2002, dated 2012)
Where two headings read alike, the source gives them in different places.

Key:
[1] = system: BCL-XL expression in K562 cells; test: Protein expression profiling, Western Blot: BCL-XL down-regulation; assay type: cell-based; details: 36 hours
Description: (§1) Protein expression profiling. The expression pattern induced by histone deacetylase inhibitors can be monitored by Western Blot analysis with antibodies against p21 and BCL-XL using whole cell extracts of cells treated with the respective compounds at the indicated concentrations. Modulation of protein expression is exemplified by the induction of expression of the cell cycle inhibitor/tumor suppressor p21 and the suppression of expression of the anti-apoptotic molecule BCL-XL.

[2] = system: p21 expression in K562 cells; test: Protein expression profiling, Western Blot: p21 induction; assay type: cell-based; details: 36 hours
Description: as §1

[3] = system: HDAC-dependent transcriptional repression in reporter cell line UAS TK-luc (293T cells); test: Transcriptional reporter gene assay (UAS TK luciferase, Gal4-repressor fusion); assay type: cell-based; details: for concentration at which induction of luciferase reporter gene expression starts: 24 hours treatment; for fold induction at 8 µM: Homo sapiens, HEK-293T, read-out: fold induction of luciferase reporter gene expression
Procedure: Depicted is the fold induction of luciferase expression after treatment of cells at the indicated concentrations of Compounds 1, 2 and 3.
Transcriptional reporter gene assay. The transcriptional assay for repressor activity exploits activation and derepression of a Gal4-dependent reporter gene (Hildebrand et al., 2001, J Biol Chem 276, 9889-95; Maurer et al., 2002, Blood 99, 2647-52). This assay is performed with specifically constructed permanent cell lines. 293T cell were stably transfected with a UAS TK luciferase reporter plasmid (Heinzel et al., 1997 Nature 387, pp 43-48) and an expression plasmid for the Gal4 DNA binding domain fused to an HDAC-dependent repressor molecule. While Gal4 fusion proteins repress this activity, HDAC inhibitors induce relief of this repression which can be detected as an increase in reporter gene activity (e.g. by luciferase activity detection assay).
Addition of Compounds 1, 2 and 3 relieve this repression as measured by increased expression and activity of luciferase in lysates of treated cells after 24 hours. Both, Compound 1 and 2 induce luciferase reporter gene expression after stimulation of cells for 24 hours starting at a concentration of 8 μM (2-3 fold) with a maximum induction of more than 20 fold at 200 μM. Compound 3, however, induces expression of reporter gene already at a concentration of 1.6 μM with a maximum induction of almost 40 fold at 40 μM.

[4] = system: HDAC activity in nuclear extracts from HeLa cells; test: In vitro HDAC activity in HeLa nuclear extracts (Fluor de Lys); assay type: biochemical; details: read-out: concentration giving 50% reduction of HDAC activity
Description: Relative HDAC activity is shown as percent of activity of untreated nuclear extracts.
(§2) In vitro inhibition of recombinant HDAC's. The determination of histone deacetylase activity in HeLa nuclear extracts or recombinant HDAC proteins from High5 insect cells is based on the specific deacetylation of an artificial substrate (Fluor de Lys, Biomol). The substrate turn over may be detected and quantified by fluorometry. By addition of a potential HDAC inhibitor the hydrolysis of the substrate is constrained resulting in a decreased fluorometric signal. IC50 values may be calculated from dose-response curves.
(§3) The assay is separated in two steps: in the first step the substrate (Fluor de Lys/Biomol KI-104) is hydrolysed by histone deacetylases. In step two HDAC activity is terminated and the fluorophore is activated by the addition of a developer (Developer/Biomol KI-105). Nuclear extracts from HeLa cells (Biomol KI-140) or recombinant proteins and the potential HDAC inhibitor are mixed with reaction buffer (Biomol KI143) to a total volume of 25 μl per well of a 96 well plate. 25 μl substrate (1:100 dilution in reaction buffer) per well are added to start the reaction. A negative control without histone deacetylase activity and a positive control without HDAC inhibitor are treated likewise. The reaction is stopped after 15-60 min. by adding 50 μl developer (1:20 dilution in reaction buffer). After another 15 min. incubation time at room temperature the fluorescence signal is stable for 60 min and may be detected by a fluorescence reader (excitation filter: 390 nm, emission filter: 460 nm).

[5] = system: histone H4 acetylation in 293T cells; test: Induction of histone H4 hyperacetylation, Western Blot; assay type: cell-based; details: 6 hours
Description: Induction of histone hyperacetylation. These acetylated histones can be detected by Western Blot analysis of whole cell extracts from histone deacetylase inhibitor-treated 293T cells using antibodies specific for the acetylated N-terminal lysine residues of histones H4 (Göttlicher et al., 2001, EMBO J. 20, 6969-78).
Since histone deacetylase inhibitors shift the enzymatic balance between histone acetyl transferases (HAT's) and histone deacetylases (HDAC's) towards HAT's by blocking HDAC's, they induce the accumulation of N-terminally hyperacetylated histones H4. This can be seen in FIG. 2 by the induction of histone hyperacetylation after treatment of 293T cells for 6 hours with Compounds 1, 2 and 3. Hyperacetylation can be seen with Compounds 1 and 2 at a concentration as low as 1.6 μM with a maximum induction at […], whereas compound 3 induces hyperacetylation starting at 320 nM.

[6] = system: BV-173 cells; test: Measurement of apoptosis, FACS sub-G1 by propidium iodide staining; assay type: cell-based; details: with Z-VAD, 24 hours
Description: Measurement of Apoptosis. FACS analysis of the cell cycle by propidium iodide (PI) staining. The cell cycle can be divided into four different sections: During G0/1-phase cells are in senescence or proliferate, in S-phase cells start replicating their DNA, and during G2- and M-phase cells undergo mitosis. […] Degradation of DNA is a marker for apoptosis. The sub-G1 area indicates the hypodiploid DNA peak corresponding to cells with fragmented DNA undergoing apoptosis Using a dye that intercalates with DNA (such as propidium iodide—PI) the cellular DNA content was determined. Between 5×10^5-1×10^6 cells were seeded out in cell culture dishes and treated for the desired time with the desired amount of test compound. After the incubation cells were harvested, washed in cold PBS, and the cell pellet was resuspended in 1 ml 70% ethanol (−20° C.). These cell pellets may be shelved for several month.
For PI staining 3 ml cold sodium citrate solution (38 mM, pH 7.4) was added, cells were pelleted and stained with 500 μl sodium citrate solution (38 mM, pH 7.4) containing 50 μg/ml PI and 5 μg/ml RNase. After a 30 minute incubation time at 37° C. in darkness, cells were analyzed via FACS analysis. The sub-G1-peak constitutes the amount of apoptotic cells.

[7] = system: human tumor cell lines of breast, colon, pancreas and prostate origin; test: Growth inhibition of tumor cell lines (SRB assay); assay type: cell-based; details: various cancer cell lines, 72 hours
Procedure: Growth inhibition of tumor cell lines. The reduction in cellular biomass was measured by SRB-assay. For this assay cells were seeded in 96 well culture dishes at densities between 3000 and 8000 cells per well. After recovery of 24 hours cells were cultured for 48-72 hours in the absence or presence of the indicated concentrations of compounds. Synergistic reduction in total cellular biomass was assayed through SRB-assay by adding the compounds in the medium at the indicated concentrations and cultivate the cells for further 48 hours.
Cells were fixed with cold Trichloracetat (TCA) producing a final TCA concentration of 10%. After 1 hour of incubation at 4° C. the cells were washed five times with water and air dried. Fixed cells were stained for 30 minutes with 0.4% (wt/vol) Sulforhodamine B (SRB) dissolved in 1% acetic acid and washed four times with 1% acetic acid to remove unbound dye. After air drying bound dye was solubilized with 10 mM unbuffered Tris base (pH 10.5) for 5 minutes. Optical densities (OD) were read on a Molecular Devices Versa Max tunable microplate reader at 520-550 nm. Four test wells for each dose-response were set in parallel with 12 control wells per cell line. Measurement of the cell population density at time 0 (To; the time at which the drug was added) was also made from 12 reference wells of cells fixed with TCA just prior to drug addition to the test plates. Background OD of complete medium with 5% FBS fixed and stained as described above was also determined in 12 separate wells. From the unprocessed OD data from each microtiter plate the background OD measurements (i.e. OD of complete medium plus stain and OD of cells at T0) were subtracted thus giving the reduction of cellular biomass of the cells.

[8] = target: T1, recombinant HDAC6 (Homo sapiens, UniProt Q9UBN7); test: In vitro inhibition of recombinant HDAC6 (Fluor de Lys); assay type: biochemical; details: read-out: concentration giving 50% reduction of HDAC activity
T1 construct: made in house; host or cells: High5 insect cells
T1 sequence (Q9UBN7 1-1215): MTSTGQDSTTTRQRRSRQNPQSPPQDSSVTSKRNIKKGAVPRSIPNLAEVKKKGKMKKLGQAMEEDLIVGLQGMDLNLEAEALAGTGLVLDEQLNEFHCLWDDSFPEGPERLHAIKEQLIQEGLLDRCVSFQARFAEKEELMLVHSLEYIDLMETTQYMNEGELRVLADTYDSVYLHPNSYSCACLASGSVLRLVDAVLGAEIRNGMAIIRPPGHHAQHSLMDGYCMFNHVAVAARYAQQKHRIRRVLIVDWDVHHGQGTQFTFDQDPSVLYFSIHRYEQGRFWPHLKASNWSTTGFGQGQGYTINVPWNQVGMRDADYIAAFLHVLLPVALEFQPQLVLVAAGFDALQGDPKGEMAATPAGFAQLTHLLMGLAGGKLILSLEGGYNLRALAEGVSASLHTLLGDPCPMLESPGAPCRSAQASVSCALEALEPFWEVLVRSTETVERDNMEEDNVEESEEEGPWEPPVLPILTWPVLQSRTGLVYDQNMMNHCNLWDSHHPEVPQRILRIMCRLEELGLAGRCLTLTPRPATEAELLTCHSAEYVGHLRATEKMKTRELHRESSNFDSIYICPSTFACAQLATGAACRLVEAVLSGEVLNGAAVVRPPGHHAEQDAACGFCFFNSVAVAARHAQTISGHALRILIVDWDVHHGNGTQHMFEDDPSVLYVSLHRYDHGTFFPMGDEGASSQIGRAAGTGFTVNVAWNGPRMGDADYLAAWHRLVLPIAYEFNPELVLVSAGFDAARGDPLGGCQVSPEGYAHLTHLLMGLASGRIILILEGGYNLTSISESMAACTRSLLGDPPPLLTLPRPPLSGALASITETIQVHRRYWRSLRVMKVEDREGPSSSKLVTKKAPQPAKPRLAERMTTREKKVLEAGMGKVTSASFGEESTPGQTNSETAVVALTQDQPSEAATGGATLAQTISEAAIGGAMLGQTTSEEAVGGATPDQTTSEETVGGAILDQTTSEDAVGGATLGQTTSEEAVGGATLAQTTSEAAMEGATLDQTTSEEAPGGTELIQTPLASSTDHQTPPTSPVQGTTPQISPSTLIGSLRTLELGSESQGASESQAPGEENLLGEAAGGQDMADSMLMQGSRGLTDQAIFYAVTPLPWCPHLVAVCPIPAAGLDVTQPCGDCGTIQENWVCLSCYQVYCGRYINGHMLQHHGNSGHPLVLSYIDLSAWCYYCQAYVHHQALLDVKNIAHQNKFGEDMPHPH
Description: (§4) Relative HDAC activity is shown as percent of activity of untreated HDAC enzymes.
as §2
as §3, with “A negative control without histone deacetylase activity and a positive control without HDAC inhibitor are treated likewise. The reaction is stopped after 15-60 min. by adding 50 μl developer (1:20 dilution in reaction buffer).” left out

[9] = target: T2, recombinant HDAC1 (Homo sapiens, UniProt Q13547); test: In vitro inhibition of recombinant HDAC1 (Fluor de Lys); assay type: biochemical; details: read-out: concentration giving 50% reduction of HDAC activity
T2 construct: made in house; host or cells: High5 insect cells
T2 sequence (Q13547 whole entry, species assumed): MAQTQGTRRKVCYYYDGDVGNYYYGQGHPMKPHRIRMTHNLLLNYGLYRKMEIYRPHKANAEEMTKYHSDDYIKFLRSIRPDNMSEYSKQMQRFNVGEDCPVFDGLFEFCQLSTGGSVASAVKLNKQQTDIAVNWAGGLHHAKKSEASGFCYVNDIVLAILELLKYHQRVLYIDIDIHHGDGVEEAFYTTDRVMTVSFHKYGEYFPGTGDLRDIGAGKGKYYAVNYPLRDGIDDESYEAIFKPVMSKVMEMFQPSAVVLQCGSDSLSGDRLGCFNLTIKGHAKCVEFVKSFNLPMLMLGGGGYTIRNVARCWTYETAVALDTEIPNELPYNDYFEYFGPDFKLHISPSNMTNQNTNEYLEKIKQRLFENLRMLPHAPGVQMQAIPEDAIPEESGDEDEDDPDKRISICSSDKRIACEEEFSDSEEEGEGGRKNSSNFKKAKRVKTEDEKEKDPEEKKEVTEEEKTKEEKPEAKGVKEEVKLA
Description: as §4, §2
as §3, with “A negative control without histone deacetylase activity and a positive control without HDAC inhibitor are treated likewise. The reaction is stopped after 15-60 min. by adding 50 μl developer (1:20 dilution in reaction buffer).” left out

[10] = target: T3, recombinant HDAC8 (Homo sapiens, UniProt Q9BY41); test: In vitro inhibition of recombinant HDAC8 (Fluor de Lys); assay type: biochemical; details: read-out: concentration giving 50% reduction of HDAC activity
T3 construct: made in house; host or cells: High5 insect cells
T3 sequence (Q9BY41 1-377): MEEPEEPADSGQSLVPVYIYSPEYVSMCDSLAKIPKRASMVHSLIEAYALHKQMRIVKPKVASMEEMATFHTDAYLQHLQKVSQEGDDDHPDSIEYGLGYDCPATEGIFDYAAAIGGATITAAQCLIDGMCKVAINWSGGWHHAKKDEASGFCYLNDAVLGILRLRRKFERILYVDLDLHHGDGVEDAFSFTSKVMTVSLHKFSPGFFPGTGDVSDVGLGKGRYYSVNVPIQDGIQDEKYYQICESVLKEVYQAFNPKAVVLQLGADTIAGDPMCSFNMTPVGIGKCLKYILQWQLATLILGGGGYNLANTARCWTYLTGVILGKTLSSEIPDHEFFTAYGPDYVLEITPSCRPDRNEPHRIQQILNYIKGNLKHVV
Description: as §4, §2
as §3, with “A negative control without histone deacetylase activity and a positive control without HDAC inhibitor are treated likewise. The reaction is stopped after 15-60 min. by adding 50 μl developer (1:20 dilution in reaction buffer).” left out

[11] = read-out: concentration inducing 50% growth arrest (IC50), mean over cell lines
[12] = read-out: concentrations inducing 50% growth arrest (IC50), range over cell lines

SMILES	concentration inducing BCL-XL downregulation [1] [µM]	concentration inducing p21 expression [2] [µM]	concentration at which induction of luciferase reporter gene expression starts [3] [µM]	fold induction at 8 µM ([3]; 24 hours)	IC50 [4] [µM]	concentration of maximum induction of histone H4 hyperacetylation [5] [µM]	lowest concentration at which histone H4 hyperacetylation is seen [5] [µM]	apoptotic process in the presence of pan-caspase inhibitor Z-VAD [6]	IC50 [7, 11] [µM]	IC50 [7, 12] [µM]	IC50 [8] [µM]	maximum induction of luciferase reporter gene expression ([3]; at 40 μM, 24 hours) [fold]	IC50 [9] [µM]	IC50 [10] [µM]	concentration at which histone H4 hyperacetylation starts [5] [nM]
O=C(CCC1CCCC1)NO [Compound 1, 3-Cyclopentyl-N-hydroxy-propionamide]	200	40	8	2 to 3	14.7	40	1.6	completely blocked	33	8 to 70					
O=C(CCC1CCCCC1)NO [Compound 2, 3-Cyclohexyl-N-hydroxy-propionamide]	8	8	8	2 to 3	6.1	40	1.6	completely blocked	15	5 to 26					
O=C(C=CC1CCCCC1)NO [Compound 3, 3-Cyclohexyl-N-hydroxy-acrylamide]	8	8	1.6		0.9			completely blocked	2.6	0.5 to 8	0.3 to 0.4	~40	0.3 to 0.4	0.3 to 0.4	320
